Data reported in ChEMBL document CHEMBL4145492, “Discovery of biphenyl-substituted diarylpyrimidines as non-nucleoside reverse transcriptase inhibitors with high potency against wild-type and mutant HIV-1” (Eur J Med Chem, 2018).
pEC50, pIC50: −log10 of the molar value.

Key:
[1] = tested on: Human immunodeficiency virus 2; assay: Antiviral activity against HIV2 ROD infected in human MT4 cells assessed as reduction of virus-induced cytopathic effect after 4 days by MTT assay; assay type: functional, organism-based; details: Human immunodeficiency virus 2, ISOLATE ROD, MT4, 96 h
[2] = molecular target: Human immunodeficiency virus type 1 reverse transcriptase (Human immunodeficiency virus 1, UniProt Q72547); assay: Inhibition of recombinant wild type HIV1 reverse transcriptase p66/p51 using poly (rA)/anoligo (dT)16 as template/primer assessed as inhibition of biotin-dUTP incorporation after 40 mins by Pico-Green staining based fluorescence assay
[3] = Selectivity index, ratio of CC50 for human MT4 cells to EC50 for wild type HIV1 3B; assay type: toxicity; details: read-out: Ratio CC50/EC50
[4] = tested on: Human immunodeficiency virus 1; assay: Antiviral activity against wild type HIV1 3B infected in human MT4 cells assessed as reduction of virus-induced cytopathic effect after 4 days by MTT assay; assay type: functional, organism-based; details: Human immunodeficiency virus 1, 3B, MT4, 96 h
[5] = Cytotoxicity against human MT4 cells assessed as reduction in cell viability after 4 days by MTT assay; assay type: cell-based
[6] = tested on: Human immunodeficiency virus 1; assay: Antiviral activity against HIV1 harboring reverse transcriptase Y181C mutant infected in human MT4 cells assessed as reduction of virus-induced cytopathic effect after 4 days by MTT assay; assay type: functional, organism-based; details: Human immunodeficiency virus 1, MT4, 96 h
[7] = tested on: Human immunodeficiency virus 1; assay: Antiviral activity against HIV1 harboring reverse transcriptase Y188L mutant infected in human MT4 cells assessed as reduction of virus-induced cytopathic effect after 4 days by MTT assay; assay type: functional, organism-based; details: Human immunodeficiency virus 1, MT4, 96 h
[8] = tested on: Human immunodeficiency virus 1; assay: Antiviral activity against HIV1 harboring reverse transcriptase K103N mutant infected in human MT4 cells assessed as reduction of virus-induced cytopathic effect after 4 days by MTT assay; assay type: functional, organism-based; details: Human immunodeficiency virus 1, MT4, 96 h
[9] = tested on: Human immunodeficiency virus 1; assay: Antiviral activity against HIV1 harboring reverse transcriptase E138K mutant infected in human MT4 cells assessed as reduction of virus-induced cytopathic effect after 4 days by MTT assay; assay type: functional, organism-based; details: Human immunodeficiency virus 1, MT4, 96 h
[10] = tested on: Human immunodeficiency virus 1; assay: Antiviral activity against HIV1 harboring reverse transcriptase L100I mutant infected in human MT4 cells assessed as reduction of virus-induced cytopathic effect after 4 days by MTT assay; assay type: functional, organism-based; details: Human immunodeficiency virus 1, MT4, 96 h
[11] = tested on: Human immunodeficiency virus 1; assay: Antiviral activity against HIV1 RES056 harboring reverse transcriptase K103 N/Y181C double mutant infected in human MT4 cells assessed as reduction of virus-induced cytopathic effect after 4 days by MTT assay; assay type: functional, organism-based; details: Human immunodeficiency virus 1, RES056, MT4, 96 h
[12] = tested on: Human immunodeficiency virus 1; assay: Antiviral activity against HIV1 harboring reverse transcriptase F227L/V106A double mutant infected in human MT4 cells assessed as reduction of virus-induced cytopathic effect after 4 days by MTT assay; assay type: functional, organism-based; details: Human immunodeficiency virus 1, MT4, 96 h
[13] = tested on: Human immunodeficiency virus 1; assay: Potency index, ratio of nevirapine EC50 to test compound EC50 for wild type HIV1 3B infected in human MT4 cells; assay type: functional

Structure (SMILES)	pEC50 [1]	pIC50 [2]	selectivity ratio [3]	pEC50 [4]	CC50 at 96 h [5] [µM]	pEC50 [6]	pEC50 [7]	pEC50 [8]	pEC50 [9]	pEC50 [10]	pEC50 [11]	pEC50 [12]	Ratio EC50 [13]
Cc1cc(-c2cccc(Cl)c2)cc(C)c1Nc1ccnc(Nc2ccc(C#N)cc2)n1	< 5.67	7.70	409	8.28	2.16								
Cc1cc(-c2ccccc2F)cc(C)c1Nc1ccnc(Nc2ccc(C#N)cc2)n1	< 5.67	8.05	1540	8.85	2.12	8.10	6.89	8.49	8.11	7.92	6.64	≤ 6.41	
Cc1ccccc1-c1cc(C)c(Nc2ccnc(Nc3ccc(C#N)cc3)n2)c(C)c1	< 5.42	7.74	1580	8.62	3.82								
Cc1cc(-c2cccc(C(F)(F)F)c2)cc(C)c1Nc1ccnc(Nc2ccc(C#N)cc2)n1	< 5.39	7.24	477	8.08	4.03								
COc1ccccc1-c1cc(C)c(Nc2ccnc(Nc3ccc(C#N)cc3)n2)c(C)c1	< 6.03	7.68	316	8.52	0.94								
Cc1cc(-c2cccc(C#N)c2)cc(C)c1Nc1ccnc(Nc2ccc(C#N)cc2)n1	< 6.04	7.96	601	8.82	0.92	7.96	< 6.04	8.64	8.09	7.77	6.57	< 6.04	
COc1cccc(-c2cc(C)c(Nc3ccnc(Nc4ccc(C#N)cc4)n3)c(C)c2)c1	< 5.52	7.57	1050	8.54	2.99								
Cc1cc(-c2c(C)cccc2C)cc(C)c1Nc1ccnc(Nc2ccc(C#N)cc2)n1	< 5.59	7.43	364	8.15	2.59								
Cc1cc(-c2ccccc2)cc(C)c1Nc1ccnc(Nc2ccc(C#N)cc2)n1	< 5.38	7.80	1520	8.55	4.17								10
Cc1cc(-c2cccc(F)c2)cc(C)c1Nc1ccnc(Nc2ccc(C#N)cc2)n1	< 5.39	7.92	2380	8.77	4.12								
Cc1cc(-c2ccccc2Cl)cc(C)c1Nc1ccnc(Nc2ccc(C#N)cc2)n1	< 5.40	7.70	1150	8.59	3.99								
Cc1cccc(-c2cc(C)c(Nc3ccnc(Nc4ccc(C#N)cc4)n3)c(C)c2)c1	< 5.44	7.52	622	8.23	3.67								
Cc1cc(-c2ccccc2C(F)(F)F)cc(C)c1Nc1ccnc(Nc2ccc(C#N)cc2)n1	< 5.38	7.34	606	8.16	4.21								
Cc1ccc(-c2cc(C)c(Nc3ccnc(Nc4ccc(C#N)cc4)n3)c(C)c2)cc1	< 5.25	7.72	1540	8.44	5.57								
Cc1cc(-c2ccc(Cl)cc2)cc(C)c1Nc1ccnc(Nc2ccc(C#N)cc2)n1	< 5.38	7.59	1130	8.43	4.19								
COc1ccc(-c2cc(C)c(Nc3ccnc(Nc4ccc(C#N)cc4)n3)c(C)c2)cc1	< 5.54	7.57	1200	8.62	2.89								
Cc1cc(C)cc(-c2cc(C)c(Nc3ccnc(Nc4ccc(C#N)cc4)n3)c(C)c2)c1	< 5.38	6.94	177	7.64	4.14								
Cc1cc(-c2ccc(C(F)(F)F)cc2)cc(C)c1Nc1ccnc(Nc2ccc(C#N)cc2)n1	< 5.38	7.17	418	8.00	4.16								
Cc1cc(-c2ccc(C#N)cc2)cc(C)c1Nc1ccnc(Nc2ccc(C#N)cc2)n1	< 5.68	7.85	2060	9.00		8.82	7.96	9.08	8.70	8.89	8.00	≤ 6.96	
Cc1cc(-c2ccc(F)cc2)cc(C)c1Nc1ccnc(Nc2ccc(C#N)cc2)n1	< 5.40	7.77	2950	8.85	4.17	8.08	6.80	8.64	8.09	8.00	6.72	6.49	
Cc1cc(-c2cc(F)cc(F)c2)cc(C)c1Nc1ccnc(Nc2ccc(C#N)cc2)n1	< 5.41	7.28	120	7.48	3.91								
Cc1cc(-c2cc(Cl)cc(Cl)c2)cc(C)c1Nc1ccnc(Nc2ccc(C#N)cc2)n1	< 5.37	7.34	125	7.47	4.29								
O=C1Nc2ccc(Cl)cc2[C@@](C#CC2CC2)(C(F)(F)F)O1 [EFAVIRENZ]				9.37	> 2	8.82	7.23	7.72	8.80	9.00	7.40	7.30	
Cc1cc(C#N)cc(C)c1Oc1nc(Nc2ccc(C#N)cc2)nc(N)c1Br [ETRAVIRINE]			> 1320	8.82	> 2	8.09	8.10	8.82	8.14	8.57	8.00	8.15	
Cc1ccnc2c1NC(=O)c1cccnc1N2C1CC1 [NEVIRAPINE]				7.62	> 4	< 5.40	< 5.40	5.73	7.24	6.40	< 5.40	< 5.40	
Cc1cn([C@H]2C[C@H](N=[N+]=[N-])[C@@H](CO)O2)c(=O)[nH]c1=O [ZIDOVUDINE]			> 971	8.68	> 2	8.77	8.80	8.72	8.66	8.89	8.82	9.00	
